Data reported in patent publication US20030176444A1, “Cytokine production inhibitors” (priority 2000, published 2003).

What was measured:
[1] = test system: TNF-alpha production by lipopolysaccharide-stimulated macrophages; test: Effect on TNF-alpha production by lipopolysaccharide-stimulated macrophages (ELISA); format: cell-based, C3H/HeNCrj mice; conditions: five-hour culture
Protocol: Effect on TNF-Alpha Production by Lipopolysaccharide-Stimulated Macrophages Gatifloxacin was added to a culture medium at a concentration of 1, 10, or 100 μg/mL. One mL of 3% thioglycolate culture medium (Sigma) was intraperitoneally administered to C3H/HeNCrj mice (male, 11 weeks old) to induce macrophages. Six days after the administration, the animals were sacrificed, and then 10 mL of sterile RPMI 1640 (GIBCO BRL; 10% FBS-RPMI) containing 100 U/mL penicillin-100 μg/mL streptomycin (GIBCO BRL) and 10 v/v % fetal bovine serum (FBS) was intraperitoneally injected. After gentle massage of the abdomen, the 10% FBS-RPMI was collected from the abdomen cavity. After the collected 10% FBS-RPMI was centrifuged, the supernatant was removed and the peritoneal exudate cells including macrophages were harvested. The harvested peritoneal exudate cells were suspended in 10% FBS-RPMI at a concentration of […], and the suspension was plated in each well of a 24-well plate. After incubation for 1.5 hours, non-adherent cells were washed out with 10% FBS-RPMI, and macrophages adhering to the plate were obtained. […] Each content of TNF-alpha in the culture supernatant was determined by using an enzyme immunoassay (ELISA).

[2] = test system: methicillin-resistant Staphylococcus aureus (MRSA) O-271 strain; test: Rabbit ocular infection: viable bacterial number in corneal and conjunctival tissues; format: in vivo, Japanese White Rabbits; conditions: for Viable Bacterial Number (CFU/Cornea): 52 hours after inoculation, average
Protocol: (§1) The subject substances used for the test include […], 0.3 w/v % and 0.5 w/v % gatifloxacin eye drops. The control substances used include a 0.3 w/v % ofloxacin eye drop, a 0.5 w/v % levofloxacin eye drop and a physiological saline.
(§2) Japanese White Rabbits (male, 1.74 to 2.30 kg in weight) were generally anesthetized, and then 30 μL of 3.1×10^5 CFU/mL methicillin-resistant Staphylococcus aureus (MRSA) O-271 strain suspension was injected into a corneal stroma of each rabbit via a 27 gauge injection needle attached to a 100 μL microsyringe.
(§3) Five hours and 24 hours after the bacterial inoculation, 50 μL of each test substance was instillated into the rabbit eye using a micropipet. In the observation carried out 8, 16, 24, 32, and 48 hours after the bacterial inoculation, symptoms such as opacity of cornea, and redness and edema of conjunctiva were observed and scored based on the criteria as shown in Table 1. Each rabbit was sacrificed 52 hours after the bacterial inoculation, and then the eyeball was enucleated and cornea and conjunctiva were cut out. These tissue sections were morcellated in 2 mL of a physiological saline, diluted, and plated onto a Mueller-Hinton agar medium, and then the viable bacterial number was determined by counting the colonies formed after 48 hours.

[3] = test system: methicillin-resistant Staphylococcus aureus (MRSA) O-271 strain ocular infection; test: Rabbit ocular infection: scoring of corneal and conjunctival findings; format: in vivo, Japanese White Rabbits
Protocol: Antiinflammatory Effects on Rabbit Ocular Infection
as §1, §2, §3

SMILES | concentration significantly suppressing the increase in TNF-alpha content ([1]; in combination with LPS 1 μg/mL, Williams' test) [µg/mL] | inhibition of LPS-stimulated TNF-alpha production (TNF-alpha content of culture supernatant) ([1]; mouse peritoneal macrophages, LPS 1 μg/mL, gatifloxacin 1, 10 or 100 μg/mL) | Viable Bacterial Number (CFU/Cornea) ([2]; 0.1% eye drop) | viable bacterial number in the corneal tissue (in words) ([2]; 0.1, 0.3 and 0.5 w/v % eye drop groups) | Viable Bacterial Number (CFU/Cornea) ([2]; 0.3% eye drop) | Viable Bacterial Number (CFU/Cornea) ([2]; 0.5% eye drop) | viable bacterial number in the corneal tissue (in words) ([2]; 0.5 w/v % eye drop) | symptoms of the corneal infection (total cornea score) ([3]; 0.1, 0.3 and 0.5 w/v % eye drops, 50 μL at 5 and 24 h after inoculation, observed until 48 hours) | conjunctival findings (total conjunctiva score) ([3]; 0.3 w/v % and 0.5 w/v % eye drops, after 32 hours) | conjunctival findings (total conjunctiva score) ([3]; 0.5 w/v % eye drop, after 48 hours) | symptoms of the corneal infection (total cornea score) ([3]; 0.5 w/v % eye drop, until 48 hours after inoculation) | symptoms of the corneal infection (total cornea score), comparison with ofloxacin ([3]; eye drop concentration of 0.3 w/v % or more, vs 0.3 w/v % ofloxacin eye drop)
COc1c(N2CCNC(C)C2)c(F)cc2c(=O)c(C(=O)O)cn(C3CC3)c12 (racemic) [Gatifloxacin, (±)-1-cyclopropyl-6-fluoro-1,4-dihydro-8-methoxy-7-(3-methyl-1-piperazinyl-4-oxo-3-quinolinecarboxylic acid] | ≥ 1 | dose-dependently inhibited | 1.3 × 10^4 CFU/Cornea | decreased dose-dependently | 1.1 × 10^3 CFU/Cornea | 3.9 × 10^2 CFU/Cornea | greatly decreased | dose-dependently inhibited | stronger inhibitory effect than the ofloxacin or the levofloxacin eye drop group | significantly stronger inhibitory effect than the 0.5 w/v % levofloxacin eye drop group | strong inhibitory effect | stronger inhibitory effect than the 0.3 w/v % ofloxacin eye drop group
C[C@H]1COc2c(N3CCN(C)CC3)c(F)cc3c(=O)c(C(=O)O)cn1c23 [Levofloxacin] | – | – | – | – | – | 4.4 × 10^2 CFU/Cornea | – | – | – | – | – | –
CC1COc2c(N3CCN(C)CC3)c(F)cc3c(=O)c(C(=O)O)cn1c23 (centres unmarked) [Ofloxacin] | – | – | – | – | 2.0 × 10^5 CFU/Cornea | – | – | – | – | – | – | –
